Experimental findings from PMC10470313, “Developing a peptide to disrupt cohesin head domain interactions” (iScience, 2023) are described below.

In one assay the test system is U2OS cells. Nature of the assay: Mitosis time in U2OS cells (live-cell imaging). In kind it is cell-based, human. To be noted: 10 nM peptide, 20 h, images every 5 min. As for the experimental part:
CIP3 was derived from a highly conserved region of Smc1 (Figure 1D). Therefore, we sought to test its ability to affect cohesin activity in human cells. U2OS cells were diluted into a 96-well plate and grown for about 20 h. Added to this was 10 nM peptide and the cells were grown for another 20 h. Images of the cells were taken every 5 min (Figure 5A). We expected cohesion loss to result in a mitotic delay. We calculated mitosis time starting from the first image in which condensed mitotic chromosomes were visualized until their disappearance at mitosis exit. Strikingly, the average mitosis time in CIP3-TAT treated cells increased by about 10% (from 6 to 6.5 min), indicating a mitotic delay (Figure 5B).
Figure 5 CIP3 causes a mitotic delay in human cells U2OS cells were plated in a 96-well plate and grown for 20 h to allow adherence. […] Mitosis length was determined by counting the number of images in which mitotic chromosomes were visualized. […] (B) Quantitation of mitosis length in untreated and CIP3-TAT treated cells. At least 300 cells were counted for each condition. ∗∗∗p < 0.0001.
U2OS cells were maintained in Dulbecco's Modified Eagle Medium (DMEM) (Gibco) with 10% fetal bovine serum (FBS) (Corning), 2 mM l-glutamine (Gibco), 1% penicillin-streptomycin (Gibco), and 1 mM sodium pyruvate (Gibco), at 37°C, 5% CO2. […] The significance between conditions was determined by using Student's t-test.

Assay [1] has as its system cohesin (Smc3-V5) on chromatin, yKS-008 strain. Nature of the assay: Chromatin immunoprecipitation (ChIP) of cohesin (Smc3-V5). In kind it is cell-based, yeast. Particulars: G2/M arrested; anti-V5 ChIP-qPCR; centromeres of chromosomes 3 and 4, rDNA locus chromosome 12, CARC1 chromosome 3. The protocol: To test the effect of CIP3 on the association of cohesin with chromatin, we performed a chromatin immunoprecipitation (ChIP) assay. yKS-008 strain (Smc3-V5) cells were grown to mid-log phase and arrested in the G1 phase of the cell cycle. Cells were untreated or supplemented with CIP3-TAT and then released into the cell cycle until they were rearrested at the G2/M phase. Cells were processed for ChIP with antibodies against V5 (Figure 4D). Cohesin residency was explored on loci on which cohesin enrichment: the centromeres of chromosome 3 and chromosome 4, the rDNA locus on chromosome 12 and the cohesin-associated region C1 (CARC1) on chromosome 3. […] However, it stabilizes non-cohesive chromosome-bound cohesin. […] Thus, we conclude that CIP3 inhibits ATP hydrolysis rather than blocks ATP binding and cohesin loading.
The cohesion GFP dot assay and ChIP are described in.[46]^,[63]^,[68] In brief, cohesion was studied by visualizing LacO arrays inserted at the LYS locus in a strain expressing LacI-GFP. Cell cultures were grown in a YEPD to OD600=0.5 and synchronized by nocodazole. Cells were fixed by incubating with 100 μl of 4% paraformaldehyde, 15min at room temperature and washed once (5,000rpm, 30sec, room temperature) with 1ml KOP4/sorbitol solution (0.1 M KOP4 pH=7.5 with 1.2 M sorbitol), resuspended in 100 μl of KOP4/sorbitol and stored at 4°C up to one month. […]

Where no end group is shown, it is not given here.

For KRFKDMEYLSGGEKTGGYGRKKRRQRRR [CIP3-TAT], in the assay with U2OS cells (untreated: 6 min, at least 300 cells per condition), the average mitosis time came out at 6.5 min. The “increase of average mitosis time” value in the assay with U2OS cells (vs untreated) is “about 10%”. For the same sequence, the “cohesin residency on chromatin” value in assay [1] was “cohesin residency increased in cells treated with CIP3-TAT in all tested regions”.
